The record followed here is patent publication US11912723B2, “KRAS modulators and uses thereof” (Quanta Therapeutics, Inc., priority 2022, dated 2024).

Experiment [1] addresses T1, GST-tagged KRAS G12D (2-169) (Homo sapiens, UniProt P01116, G12D).
T1 construct: GST-tagged KRAS^G12D (2-169, Reaction Biology, MSC-11-539); purchased Reaction Biology MSC-11-539 (KRAS G12D); MSC-11-502 (SOS1cat)
Kind of experiment: Nucleotide exchange assay (NEA), HTRF of SOS-mediated GTP-DY-647P1 binding. The class given is biochemical. Conditions: 5 nM GST-KRAS G12D, 20 nM SOScat, 150 nM GTP; compound 1 h at RT. An outline of the steps: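 SOS1cat (564-1049)-driven loading of GTP-DY-647P1 onto KRAS G12D, read by HTRF with anti-GST Tb cryptate donor; compound preincubated with KRAS 1 h at RT. Final 5 nM KRAS, 20 nM SOScat, 150 nM GTP, pH 7.3 HEPES buffer; read up to 90 min at RT. Blanked to no-SOS1; 4-parameter fit of % inhibition.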
(In general: Time-resolved FRET reads energy transfer from a long-lived donor to a nearby acceptor.)

Another experiment concerns the target T2, KRAS G12D/RAF1 (Homo sapiens, UniProt P01116, G12D).
T2 construct: KRAS (1-169) proteins were expressed in E. coli at 18° C; His6-MBP (N, cleaved yes); made in house; host or cells: E. coli
Kind of experiment: Protein-protein interaction (PPI) HTRF assay KRAS G12D/RAF1. The class given is binding. Conditions: KRAS G12D/RAF1, GppNHp-loaded KRAS; 30 minutes pre-incubation. In short, it runs like this:
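Biotinylated GppNHp-loaded RAS (1-169) on streptavidin-d2 acceptor and His-RAF1 RBD (52-131) on anti-His Tb donor, each prepared at 16 nM in pH 7.5 Tris buffer. Compound preincubated with RAS 30 min, then RAF1 added for 1 h at room temperature. IC50 from HTRF 665/615 ratio, normalized to no compound (0%) and untagged RAF1 (100%).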

The target of a further experiment is T3, wtNRAS/RAF1 (Homo sapiens, UniProt P01111).
T3 construct: (1-169); His6-SUMO (N, cleaved yes); made in house; host or cells: E. coli (printed for the KRAS and RAF1 constructs; not explicitly for NRAS)
T3 sequence (P01111 1-169): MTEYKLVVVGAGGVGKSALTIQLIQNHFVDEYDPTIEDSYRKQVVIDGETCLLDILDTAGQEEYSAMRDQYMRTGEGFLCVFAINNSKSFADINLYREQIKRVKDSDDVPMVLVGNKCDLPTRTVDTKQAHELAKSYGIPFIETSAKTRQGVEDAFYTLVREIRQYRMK
Kind of experiment: Protein-protein interaction (PPI) HTRF assay w.t.NRAS/RAF1. The class given is binding. How it is done: (§1) Biotinylated KRAS wt and KRAS G12DNV proteins were expressed and purified in conditions similar to those previously reported (Tran, et al., 2021) (Zhang, et al., 2020). Briefly, KRAS (1-169) proteins were expressed in E. coli at 18° C. with an upstream TEV cleavage site (ENLFYQS) followed an Avi tag sequence ([…]). KIRAS expression constructs contained both a His6 and maltose-binding protein (MBP) tags at the N-terminus for Ni-NTA column purification prior to overnight TEV cleavage and MBP column purification. The avi-tagged NRAS expression construct contained both a His6 tag and SUMO cleavage sige at the N-terminus for Ni-NTA column purification followed by His-ULP1 digestion overnight. All avi-tagged RAS proteins were dialyzed into buffer containing ATP, biotin, and BirA followed by purification over a second Ni-NTA column and then run over a size exclusion HiLoad™ 26/600 Superdex™ column in 20 mM HEPES, pH 7.5, 300 mM NaCl, 5 mM MgCl2, and 1 mM TCEP. Fractions containing the protein of interest were pooled, concentrated, and confirmed by intact mass spectrometry. To prepare ‘GTP’ loaded KRAS and NRAS, biotinylated KRAS or NRAS was nucleotide exchanged from GDP-bound protein to GppNHp-bound (Jena Biosciences, NU-401-50) protein in the presence of alkaline phosphatase and excess GppNHp as previously described and the resulting nucleotide content was confirmed by HPLC reverse phase analytical chromatography (Donohue, et al., 2019) (Tran, et al., 2021).
(§2) His-tagged RAF1 (52-131) was similarly expressed in E. coli at 18° C. overnight with an upstream TEV cleavage site. His-tagged RAF1 expression construct contained both a His6 and MBP tags at the N-terminus for Ni-NTA column purification followed by MBP-tagged TEV digestion overnight. RAF1 protein samples were further purified over a MBP column followed by a Ni-NTA column and a second MBP column. The fractions containing the protein of interest were pooled, concentrated, and further purified over a HiLoad™ 16/600 Superdex™ 75 pg size exclusion column into 20 mM HEPES, pH8.0, 200 mM NaCl, 5 mM TCEP.
(§3) When RAS proteins are in the active GTP-bound conformation, they bind the effector protein RAF1 at the N-terminus Ras-binding domain (RBD, residues 52-131) (Tran, et al., 2021). Homogenous time resolved fluorescence (HTRF) was used to monitor the interaction between wt or mutant KRAS and RAF1 or wt NRAS and RAFT. Compounds were assayed in the presence of KRAS G12D/V and RAF1 versus wt KRAS to assess activity against mutant and w.t. KRAS. Similarly, compounds were then assayed in the presence of w.t. NRAS and RAF1 to assess RAS isoform selectivity. In all assay formats, His-tagged RAF1 protein was incubated with the HTRF donor, anti-6His Tb Cryptate gold (Cisbio 61DB10RDF), and biotinylated RAS proteins were incubated with the HTRF acceptor, streptavidin-d2 (CisBio 610SADLA). The intensity of the fluorescence signal emitted is proportional to binding between the two proteins. The donor solution was prepared by mixing 16 nM His-tagged RAF1 in protein dilution buffer with 1:100 anti-6His Tb cryptate in PPI-Terbium detection buffer. 16 nM biotinylated RAS protein was diluted into protein dilution buffer (50 mM Tris-HCl pH 7.5, 150 mM NaCl, 0.1 mM MgCl2, 1 mM TCEP, 0.005% Tween20) and mixed with 1:2000 Streptavidin-d2 diluted in PPI-Terbium detection buffer (CisBio 61DB10RDF). 50× compound in DMSO was mixed with 16 nM KRAS-acceptor solution and incubated for 30 minutes at room temperature. After compound pre-incubation with KRAS, the RAF1 donor solution was added to the KRAS-acceptor solution and incubated for 1 hour at room temperature. The fluorescence signal emitted was monitored at 665 nm and 615 nm using an Envision multimode plate reader. The HTRF ratio (665/615) was calculated and normalized to 0% inhibition in the absence of compound and 100% inhibition in the presence of untagged RAF1 protein. […]

In another experiment the target is T4, KRAS G12V/RAF1 (Homo sapiens, UniProt P01116, G12V).
T4 construct: KRAS (1-169) proteins were expressed in E. coli at 18° C; His6-MBP (N, cleaved yes); made in house; host or cells: E. coli
T4 sequence (P01116 1-169 isoform P01116-2 G12V): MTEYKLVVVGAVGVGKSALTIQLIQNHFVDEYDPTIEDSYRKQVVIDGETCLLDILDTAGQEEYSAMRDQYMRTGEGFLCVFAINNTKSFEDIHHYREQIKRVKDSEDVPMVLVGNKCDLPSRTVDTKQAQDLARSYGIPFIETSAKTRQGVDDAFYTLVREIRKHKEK
The experiment can be described thus: Protein-protein interaction (PPI) HTRF assay KRAS G12V/RAF1. Conditions: KRASG12V/RAF1. The experiment is classed as binding. As for the experimental part: as §1, §2, §3

For a further experiment, the target named is T5, wtKRAS/RAF1 (Homo sapiens, UniProt P01116).
T5 construct: KRAS (1-169) proteins were expressed in E. coli at 18° C; His6-MBP (N, cleaved yes); made in house; host or cells: E. coli
T5 sequence (P01116 1-169 isoform P01116-2): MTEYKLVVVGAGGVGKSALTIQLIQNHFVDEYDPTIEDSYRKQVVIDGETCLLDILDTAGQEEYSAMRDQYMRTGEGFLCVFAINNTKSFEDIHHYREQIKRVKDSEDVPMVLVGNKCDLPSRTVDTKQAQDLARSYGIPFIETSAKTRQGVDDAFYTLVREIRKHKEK
Kind of experiment: Protein-protein interaction (PPI) HTRF assay w.t.KRAS/RAF1. The experiment is classed as binding. How it is done: as §1, §2, §3

T1 sequence (P01116 2-169 isoform P01116-2 G12D): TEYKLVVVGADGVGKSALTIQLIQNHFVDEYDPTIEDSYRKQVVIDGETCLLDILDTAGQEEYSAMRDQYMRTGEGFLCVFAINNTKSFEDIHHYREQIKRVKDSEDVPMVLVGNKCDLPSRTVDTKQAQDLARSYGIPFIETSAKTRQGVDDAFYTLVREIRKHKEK
T2 sequence (P01116 1-169 isoform P01116-2 G12D): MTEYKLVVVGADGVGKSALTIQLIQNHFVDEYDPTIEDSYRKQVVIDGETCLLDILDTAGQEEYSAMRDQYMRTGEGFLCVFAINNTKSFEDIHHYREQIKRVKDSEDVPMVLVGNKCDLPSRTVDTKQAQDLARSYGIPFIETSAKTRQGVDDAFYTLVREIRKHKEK

As usually defined, the IC50 is the concentration at which inhibition is half-maximal. In the case of `O=C1NC(=O)C2(CCCN(c3nc(OC[C@@]45CCCN4C[C@H](F)C5)nc4c3COC3(CCc5c(Cl)cccc53)C4)C2)N1` (stereo partly drawn) [Compound 24, 9-[4′-chloro-2-[[(2R,8S)-2-fluoro-1,2,3,5,6,7-hexahydropyrrolizin-8-yl]methoxy]spiro[5,8-dihydropyrano[4,3-d]pyrimidine-7,1′-indane]-4-yl]-1,3,9-triazaspiro[4.5]decane-2,4-dione], the concentration for half-maximal inhibition (IC50) in experiment [1] was 0.1 to 1 µM; against KRAS G12D/RAF1, 10 to 100 µM; against wtNRAS/RAF1, over 100 µM; against KRAS G12V/RAF1 it was 10 to 100 µM; at wtKRAS/RAF1, 10 to 100 µM.

Take `C[C@@]1(O)CCCN(c2nc(OC[C@@]34CCCN3C[C@H](F)C4)nc3c2COC2(CCc4c(Cl)cccc42)C3)C1` (stereo partly drawn) [Compound 23, (3R)-1-(4-chloro-2′-(((2R,7aS)-2-fluorotetrahydro-1H-pyrrolizin-7a(5H)-yl)methoxy)-2,3,5′,8′-tetrahydrospiro[indene-1,7′-pyrano[4,3-d]pyrimidin]-4′-yl)-3-methylpiperidin-3-ol]: the IC50 is 1 to 20 µM in experiment [1]; 10 to 100 µM at KRAS G12D/RAF1; over 100 µM on wtNRAS/RAF1; 10 to 100 µM against KRAS G12V/RAF1; over 100 µM against wtKRAS/RAF1.
